Test results: PubChem BioAssay (NCI)
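Cells were grown in 96-well plates and exposed to each compound for 48 hours at five concentrations; endpoints were interpolated linearly between bracketing concentrations, or set to the highest concentration if not reached. GI50: concentration for 50% inhibition of growth. Definition used: TGI = concentration required for complete inhibition of growth.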

Columns and labels:
Experiment in all cases: NCI anticancer screen, dose series, 48 h
[1] = tested on: RXF 393 renal
[2] = tested on: SR leukemia
[3] = tested on: TK-10 renal
[4] = tested on: MOLT-4 leukemia
[5] = tested on: OVCAR-4 ovarian
[6] = tested on: HOP-92 NSCLC
[7] = tested on: CAKI-1 renal
[8] = tested on: NCI-H460 lung
[9] = tested on: CCRF-CEM leukemia
[10] = tested on: DU-145 prostate

| Compound | GI50 [1] [µM] | TGI [1] [µM] | GI50 [2] [µM] | TGI [2] [µM] | GI50 [3] [µM] | TGI [3] [µM] | GI50 [4] [µM] | TGI [4] [µM] | GI50 [5] [µM] | TGI [5] [µM] | GI50 [6] [µM] | TGI [6] [µM] | GI50 [7] [µM] | TGI [7] [µM] | GI50 [8] [µM] | TGI [8] [µM] | GI50 [9] [µM] | TGI [9] [µM] | GI50 [10] [µM] | TGI [10] [µM] |
| --- | --- | --- | --- | --- | --- | --- | --- | --- | --- | --- | --- | --- | --- | --- | --- | --- | --- | --- | --- | --- |
| CCn1c(O)c(/C=N/NC(=O)C(C)c2ccc(CC(C)C)cc2)sc1=S (stereo not given) | 0.222 | 0.654 | 0.198 | > 100 | 2.28 | > 50.7 | 0.479 | > 48.2 | 1.08 | > 52 | 0.806 | 9.65 | 0.331 | > 33.7 | 0.353 | 10.9 | 0.23 | > 100 | 0.365 | > 22.1 |
| CC(NCCC(c1ccccc1)c1ccccc1)c1ccccc1 (stereo not given) | 1.46 | 3.23 | 1.92 | 5.26 | 1.93 | 4 | 2.59 | 7.15 | 2.15 | 6.66 | 1.05 | 3.56 | 2.73 | 9.52 | 1.71 | 3.26 | 2.38 | 8.73 | 3.09 | 9.76 |
| CC(=O)ON1CCCC(P(=O)(OCCSC(=O)C(C)(C)C)OCCSC(=O)C(C)(C)C)C1=O (stereo not given) | 0.764 | 7.02 | 0.571 | 64.2 | 3.57 | 93.3 | 0.854 | 11.5 | 1.58 | 26.4 | 0.87 | 31.2 | 2.44 | > 100 | 1.28 | 19.9 | 0.283 | 67.4 | 3.08 | > 100 |
| COC(=O)[C@]12CC[C@@H](C)[C@H](C)[C@@H]1C1=CC[C@@H]3[C@@]4(C)C[C@@H](O)[C@H](O)[C@@](C)(CO)C4=CC[C@@]3(C)[C@]1(C)CC2 | 16.9 | 34 | 17.1 | 37.4 | 19.4 | 34.5 | 15.5 | 31.7 | 15.9 | 32.8 | 19.2 | 34.9 | 15.6 | 29.8 | 17.1 | 33.8 | 18.2 | 37.1 | 16.3 | 32.6 |
| CN(C)C1CCN(C(=O)c2ccc(NC(=O)Nc3ccc(-c4nc(N5CCOCC5)c5cccn5n4)cc3)cc2)CC1 | 0.088 | 0.604 | 0.0562 | > 54 | 0.393 | 3.84 | 0.0457 | 2.52 | 0.0137 | 0.0721 | < 0.015 | 0.102 | 3.39 | 20.8 | 0.0587 | 13.6 | 0.0483 | 4.69 | 0.0335 | 12.6 |
| NS(=O)(=O)c1ccc(N=Nc2c(O)c(C(=O)O)cc3ccccc23)cc1 |  | > 100 |  | > 96.1 |  | > 100 |  | > 100 |  | > 100 |  | > 100 |  | > 100 |  | > 100 |  | > 100 |  | > 100 |
| O=c1c(F)cn(Cc2ccc(C34CC5CC(CC(C5)C3)C4)c(O)c2)c(=O)n1Cc1ccc(C23CC4CC(CC(C4)C2)C3)c(O)c1 | 6.5 | > 100 | 7.17 | 26.5 | 15.7 | 30 | 5.85 | 44.4 | 14.8 | 30.8 | 12.4 | 28.7 | 17.5 | 31.6 | 9.76 | 37.2 | 9.46 | > 100 | 8.59 | 22.9 |
| CCC[CH2][Sn]([CH2]CCC)([O]C(=O)c1ccc(OC)c(OC)c1OC)[O][Sn]([CH2]CCC)([CH2]CCC)[O]C(=O)c1ccc(OC)c(OC)c1OC | 0.153 | 0.38 | 0.315 | > 100 | 0.306 | 0.716 | 0.0804 | 2.34 | 0.618 | 1.87 | 0.159 | 0.554 | 0.0961 | 0.506 | 0.895 | 2.55 | 0.0133 | 0.161 | 1.01 | 2.17 |
| O=c1oc2ccc(-c3ccc(F)cc3F)cc2c(=O)n1-c1cccc(C(F)(F)F)c1 | 1.23 | 4.14 | 1.31 | 6.25 | 3.52 | 15.8 | 2.15 | 4.97 | 1.67 | 13.6 | 0.172 | 0.931 | 1.22 | 5.19 | 0.999 | 10.3 | 2.42 | 7.85 | 2.79 | 16.4 |
| CCN1CCN(c2cc(C)c3cc(NC(=O)c4ccc(OC)c(OC)c4)ccc3n2)CC1 | 2.81 | > 100 | 1.44 | > 30.5 | > 59 | 98.5 | 6.21 | 88.9 | 11 | > 100 | 13.4 | 85.5 | > 44.6 | > 100 | 10.5 | 31.3 | > 43.1 | > 100 | > 60.6 | > 100 |
| COc1cc(N=Nc2ccc(O)c3ncccc23)c2ncccc2c1 | 2.72 | 28.2 | 2.2 | > 100 | 9.81 | > 100 | 3.5 | > 100 | 1.68 | > 100 | 1.97 | > 100 | 1.83 | > 100 | 3.13 | > 100 | 0.459 | > 100 | 4.06 | > 100 |
| CN(C)CC[C@H](CSc1ccccc1)Nc1ccc(S(=O)(=O)NC(=O)c2ccc(N3CCN(Cc4ccccc4-c4ccc(Cl)cc4)CC3)cc2)cc1[N+](=O)[O-] | 0.918 | 4.27 | 3.85 | 40.2 | 2.44 | 5.37 | 0.392 | 2.64 | 3.04 | > 29.6 | 0.186 | 0.833 | 6.71 | > 100 | 3.52 | 23.9 | 0.36 | > 100 | 23 | > 100 |
